The source of these data is article PMC6271703, “Absorbability, Mechanism and Structure-Property Relationship of Three Phenolic Acids from the Flowers of Trollius chinensis” (Molecules, 2014).

The nature of series [1]: Caco-2 cell monolayer transport experiment. The series is classed as in vitro ADME. The note with it: human; for Papp A→B at 90 min, 100 μmol/L: incubation up to 90 min, n = 3. How it is done:
To facilitate the cells’ differentiation and formation of a confluent monolayer, Caco-2 cells were seeded at a density of 1.0 × 10^5 cells/cm^2 on a 12-well Transwell insert filter. The inserts were fed with culture medium at 2 days intervals in the first week, and then at daily intervals for the AP side and 2 days intervals for the BL side until they were used for the transport experiment 21 days after seeding. The AP and BL sides contained 0.5 mL and 1.5 mL of culture medium, respectively. […] The cell inserts were used after the resistance reached above 600 Ω∙cm^2.
On day 21, transport study was initiated by careful removal of the culture medium from AP and BL sides. Caco-2 monolayers were rinsed twice with pre-warmed HBSS and were incubated by pre-warmed HBSS for 30 min at 37 °C. PA, GA and TS were dissolved in DMSO, and diluted to the concentration of 25, 50 and 100 μmol/L with HBSS. The final DMSO concentration was less than 1%. Test compounds were added to the AP side (0.5 mL) or BL side (1.5 mL) of the inserts, while the receiving chamber contained the corresponding volume of HBSS. […] At 30, 60, 90, 120, 150 and 180 min, 0.2 mL of solutions from BL side or AP side were collected, and replaced with an equal volume of HBSS. Samples were frozen immediately and stored below −20 °C before analysis. Upon completion of all permeation experiments, TEER values were measured to ensure that cell monolayer integrity and viability had not been adversely affected by experimental conditions.
(§1) The cell survival rate (%) was calculated using the equation survival rate= A/A0 × 100, wherein A was the average absorbance value of treatment group; A0 was the average absorbance value of the blank control group. The Papp was determined in this study by HPLC quantification of the compounds in the receiver chamber after transport across the Caco-2 monolayer. The calculation was described by the equation Papp = (dQ/dt) × (1/A) × (1/C0), wherein dQ/dt was the rate of appearance of the test compound on the receiver compartment (μmol/s); C0 was the initial test compound concentration on the donor compartment (μmol/mL); and A was the surface area of Caco-2 monolayer (cm^2).
The percentage transported (%) was calculated using the equation % Transported = QB/(CS × VD) × 100, wherein QB was the amount of compounds in the receiver compartment(μmol); CS was the donor concentration of test compounds (μmol/L); VD was the volume of the donor compartment (L). The transport rate (μmol/h/cm^2) was calculated using the equation transport rate = QB/(t × A), wherein QB was the amount of compounds in the receiver compartment(μmol); t was the incubating time (h); A was the surface area of Caco-2 monolayer (cm^2).

In a further series the test system is Caco-2 cells. Kind of series: MTT assay on Caco-2 cells. Type of series: cell-based, human. The note with it: for Survival Rate: 4 h, n = 4. How it is done:
Caco-2 cells at logarithmic growth phase were seeded onto 96-well plates and incubated at 37 °C in culture hood. The culture medium was removed after cells formed a full layer, and each 100 μL of HBSS solution (negative control group) and drug-containing HBSS solution (three phenolic acids at the concentrations of 25, 50 and 100 μmol/L, respectively) was added to each well. When the plates were cultured for 4 h, HBSS solution was completely transferred out and each 100 μL of MTT solution (0.5 mg/mL) was added to each well. MTT solution was removed carefully after 4 hours of incubation at 37 °C, and each 150 μL of DMSO was added to each well, then culture vessels were agitated on an orbital shaker for 10 min and absorbance was read on a microplate reader at 570 nm.
as §1
In general terms: Formazan colour is commonly taken as a measure of viable cells.

The nature of series [2]: Caco-2 cell monolayer transport experiment. The series is classed as in vitro ADME. The note with it: human; for Papp A→B at 90 min, 25 μmol/L / Papp B→A at 90 min, 25 μmol/L / Papp A→B at 90 min, 50 μmol/L / Papp B→A at 90 min, 50 μmol/L / Papp B→A at 90 min, 100 μmol/L / Papp A→B at 90 min / Papp B→A at 90 min: incubation up to 90 min; for Papp A→B at 90 min, 25 μmol/L / Papp B→A at 90 min, 25 μmol/L / Papp A→B at 90 min, 50 μmol/L / Papp B→A at 90 min, 50 μmol/L / Papp B→A at 90 min, 100 μmol/L: n = 3; for Papp A→B at 90 min / Papp B→A at 90 min: average of 25, 50 and 100 μmol/L; for Papp at 90 min: monitored for 90 min, read-out: bidirectional Papp level (AP to BL and BL to AP). For orientation: Caco-2 monolayers are a common model of the intestinal barrier.

Another series deals with influenza A. Further details: method as in ref [7] = [7]; 7. Wang R.F. The Constituents and Bioactivities of Jinlianhua and Pangdahai Doctoral Thesis Peking University Bejing, China 2003. The note with it: antiviral, ref [7]; cited from earlier work.
The next series relates to Streptococcus pneumonia. Further details: method as in ref [7] = [7]; 7. Wang R.F. The Constituents and Bioactivities of Jinlianhua and Pangdahai Doctoral Thesis Peking University Bejing, China 2003. The note with it: ref [7]; cited from earlier work.
A further series concerns Pseudomonas aeruginosa. On the set-up: method as in PMID 11849843. The note with it: ref [4],[5]; cited from earlier work.
Another series relates to Staphylococcus aureus. On the set-up: method as in PMID 11849843. The note with it: ref [4],[5]; cited from earlier work.
The subject of the next series is Para 3. Further details: method as in ref [6] = [6]; 6. Li Q.F. Feng S.Q. Li Y.L. Cen Y.Z. Yang Y.T. Wang L.Y. Study on the antibacterial and antiviral activity compositions of Trollius chinensis Bunge J. Zhejiang Univ. (Sci. Ed.) 2004 31 412 415. The note with it: antiviral, ref [6]; cited from earlier work.

Converted amounts (≈) assume the structure as drawn.

In turn, `COc1cc(C(=O)O)cc2c1OC(C)(C)CC2` [GA, 8-methoxy-2,2-dimethylchroman-6-carboxylic acid] displayed a Papp A→B at 90 min, 100 μmol/L in series [1] of 17 ± 1.2 ×10⁻⁶ cm/s. Also, in the series with Caco-2 cells (25 μmol/L), the “Survival Rate” value is 107.1 ± 5.7%. Moreover, the “Survival Rate” value in the series with Caco-2 cells (50 μmol/L) came out at 118.9 ± 13.7%. The “Survival Rate” value with Caco-2 cells (100 μmol/L) is 123.6 ± 6.2%. In series [2], this molecule displayed a Papp A→B at 90 min, 25 μmol/L of 21.4 ± 2 ×10⁻⁶ cm/s; a Papp B→A at 90 min, 25 μmol/L of 22.1 ± 0.8 ×10⁻⁶ cm/s; a Papp A→B at 90 min, 50 μmol/L of 15.9 ± 0.2 ×10⁻⁶ cm/s; a Papp B→A at 90 min, 50 μmol/L of 20 ± 0.7 ×10⁻⁶ cm/s. Moreover, in series [2], the Papp B→A at 90 min, 100 μmol/L amounted to 19.4 ± 1 ×10⁻⁶ cm/s; the Papp A→B at 90 min came to 18.1 ± 1.1 ×10⁻⁶ cm/s; the Papp B→A at 90 min worked out at 20.5 ± 0.8 ×10⁻⁶ cm/s; the Papp at 90 min is around 10 ×10⁻⁶ cm/s. Moreover, the IC50 with influenza A is 42.1 µg/mL (≈ 178 µM).

Take `COc1cc(C(=O)O)cc(CC=C(C)C)c1O[C@@H]1O[C@H](CO)[C@@H](O)[C@H](O)[C@H]1O` [TS, 3-methoxy-5-(3-methylbut-2-en-1-yl)-4-(((2S,3R,4S,5S,6R)-3,4,5-trihydroxy-6-(hydroxymethyl)tetrahydro-2H-pyran-2-yl)oxy)benzoic acid]: the Papp A→B at 90 min, 100 μmol/L in series [1] was determined as 7.7 ± 0.9 ×10⁻⁶ cm/s. Moreover, the “Survival Rate” value in the series on Caco-2 cells (25 μmol/L) was found to be 98.9 ± 4.3%. In addition, the “Survival Rate” value with Caco-2 cells (50 μmol/L) is given as 107.3 ± 7.0%. The “Survival Rate” value with Caco-2 cells (100 μmol/L) is 118.2 ± 8.1%. For the same molecule, in series [2], the Papp A→B at 90 min, 25 μmol/L came out at 8.6 ± 1.6 ×10⁻⁶ cm/s; the Papp B→A at 90 min, 25 μmol/L stood at 8.6 ± 0.4 ×10⁻⁶ cm/s; the Papp A→B at 90 min, 50 μmol/L was determined as 10.6 ± 0.3 ×10⁻⁶ cm/s; the Papp B→A at 90 min, 50 μmol/L was 10.8 ± 0.6 ×10⁻⁶ cm/s. Besides, in series [2], the Papp B→A at 90 min, 100 μmol/L amounted to 8 ± 0.3 ×10⁻⁶ cm/s; the Papp A→B at 90 min turned out to be 8.9 ± 0.9 ×10⁻⁶ cm/s; the Papp B→A at 90 min worked out at 9.1 ± 0.4 ×10⁻⁶ cm/s; the Papp at 90 min was around 10 ×10⁻⁶ cm/s. The MIC in the series with Streptococcus pneumonia was 128 µg/mL (≈ 321 µM).

`COc1cc(C(=O)O)cc(CC=C(C)C)c1O` [PA, 4-hydroxy-3-methoxy-5-(3-methylbut-2-en-1-yl)benzoic acid] had a Papp A→B at 90 min, 100 μmol/L in series [1] of 29.6 ± 1.1 ×10⁻⁶ cm/s. Moreover, the “Survival Rate” value in the series on Caco-2 cells (25 μmol/L) is 118.8 ± 11.6%. For the same molecule, the “Survival Rate” value in the series on Caco-2 cells (50 μmol/L) worked out at 110.5 ± 3.8%. Also, the “Survival Rate” value with Caco-2 cells (100 μmol/L) worked out at 124.5 ± 2.2%. In series [2], this molecule registered a Papp A→B at 90 min, 25 μmol/L of 31.7 ± 0.4 ×10⁻⁶ cm/s; a Papp B→A at 90 min, 25 μmol/L of 25.4 ± 2.2 ×10⁻⁶ cm/s; a Papp A→B at 90 min, 50 μmol/L of 28 ± 1.3 ×10⁻⁶ cm/s; a Papp B→A at 90 min, 50 μmol/L of 25.6 ± 1.9 ×10⁻⁶ cm/s. Besides, in series [2], the Papp B→A at 90 min, 100 μmol/L turned out to be 25.9 ± 1.4 ×10⁻⁶ cm/s; the Papp A→B at 90 min stood at 29.8 ± 1.3 ×10⁻⁶ cm/s; the Papp B→A at 90 min stood at 25.6 ± 1.8 ×10⁻⁶ cm/s; the Papp at 90 min was around 10 ×10⁻⁶ cm/s. Besides, the minimum inhibitory concentration (MIC) in the series on Pseudomonas aeruginosa is 16 µg/mL (≈ 67.7 µM). Also, the MIC in the series on Staphylococcus aureus was 200 µg/mL (≈ 846 µM). Moreover, in the series on Para 3, the IC50 was 184.2 µg/mL (≈ 780 µM).

On to `CC(=O)O[C@H]1C(=O)[C@@]2(C)[C@H]([C@H](OC(=O)c3ccccc3)[C@]3(O)C[C@H](OC(=O)[C@H](O)[C@@H](NC(=O)c4ccccc4)c4ccccc4)C(C)=C1C3(C)C)[C@]1(OC(C)=O)CO[C@@H]1C[C@@H]2O` [Paclitaxel, reference compound], for which the “Survival Rate” value in the series on Caco-2 cells (25 μmol/L) is recorded as 67.3 ± 8.2%; in the series on Caco-2 cells (50 μmol/L), 45.5 ± 6.7%; with Caco-2 cells (100 μmol/L), 37.4 ± 3.5%. Besides, the “Survival rate of Caco-2 cells” value in the series on Caco-2 cells (at different concentrations (25, 50, 100 μmol/L)) is “below 70%”.

Take `CC(C)NCC(O)COc1cccc2ccccc12` (stereo not shown) [propranolol, reference compound]: the Papp at 180 min in series [1] (standard markers added to the AP side, model validation, read-out: Papp of reference controls) was determined as 12.4 ×10⁻⁶ cm/s.

As usually defined, the Papp A→B is how fast a substance crosses the layer from the apical side. A high value points to ready permeation. Usually Papp B→A stands for how fast a substance crosses the layer from the basolateral side. The term Papp denotes the rate of passage across a membrane or cell layer, normalised by area and donor concentration. As a reminder, the IC50 is the point on the concentration scale where inhibition reaches its midpoint. One may read the MIC as the smallest concentration in the dilution series that meets the test's criterion for growth inhibition.
